These results are taken from patent US20250325492A1, “IONIZABLE LIPIDS, LIPID NANOPARTICLES FOR MRNA DELIVERY AND METHODS OF MAKING THE SAME” (University of Cincinnati, priority 2022, published 2025).

The subject of assay [1] is human Jurkat T cells. Put plainly: In vitro mRNA transfection efficiency (eGFP fluorescence), flow cytometry. It is filed as cell-based. Particulars: 44-hour incubation; for transfection efficiency: 100 ng mRNA per well, eGFP fluorescence, FIG. 17B; for transfection efficiency, result in words: compared with the controls. On the procedure:
(§1) Flow cytometry was used to determine in vitro cellular uptake and transfection efficacy in human Jurkat T cells. The cells were seeded in a 96-well plate at a density of 40,000 cells/well. Different formulations containing 100 ng of mRNA were added to each well and were incubated for 44 hours at 37° C. The cells were washed and centrifuged at 300×g. The supernatant was discarded. After the cells were diluted in PBS, flow cytometry analysis was performed to quantify the amounts of cellular uptake and transfection efficiency.
(§2) LNPs with different compositions were tested against Jurkat cells for both cellular uptake and mRNA transfection efficiencies, as depicted in FIGS. 17A and 17B respectively. Human Jurkat cells are representative T lymphocytes which are known to be difficult to transfect. The LNPs were tested for cellular uptake using Cy5-labeled eGFP mRNA. Cy5 fluorescent dye was used to determine the cellular uptake while eGFP fluorescence was used to determine the transfection efficiency of the mRNA encapsulated in the different LNP formulations. After 44-hour incubation, fluorescence was measured using a flow cytometer. In Jurkat cells, the cellular uptake was ˜36% for the positive control, SM-102 while the transfection efficiency was ˜91%.
(In general: Flow cytometry measures light scatter and fluorescence of single cells or particles in a stream.)

The test system of assay [2] is human Jurkat T cells. In words: In vitro cellular uptake of Cy5-labeled eGFP mRNA LNPs, flow cytometry. It is filed as cell-based. Particulars: 44-hour incubation; for cellular uptake efficiency, result in words: compared with the controls. On the procedure:
as §1, §2

Molecules are shown by their SMILES.

`CCCCCCCCC(CCCCCC)COC(=O)CCCCCN(CCCCCC(=O)OCC(CCCCCC)CCCCCCCC)CCN(CCO)C1CCC1` (stereo not shown) [Lipid 1] yielded a transfection efficiency in the assay with human Jurkat T cells [1] of 59%.
As for `CCCCCCCCCCCOC(=O)CCCCCN(CCO)CCCCCCCC(=O)OC(CCCCCCCC)CCCCCCCC` [SM-102, reference compound], the cellular uptake in the assay on human Jurkat T cells [2] (100 ng mRNA per well, Cy5 fluorescence, FIG. 17A) is recorded as about 36%. For the same compound, the transfection efficiency in the assay with human Jurkat T cells [1] is recorded as about 91%.
With `CCCCCCCCC(CCCCCC)COC(=O)CCCCCN(CCCCCC(=O)OCC(CCCCCC)CCCCCCCC)CCN(C)C` (stereo not shown) [Control 2, 1,1′-bis(2-hexyldecyl) 6,6′-[[2-(dimethylamino)ethyl]imino]bis[hexanoate], reference compound], the transfection efficiency in the assay with human Jurkat T cells [1] amounted to 80%.
For the compound `CCCCCCCCC(CCCCCC)COC(=O)CCCCCN(CCCCCC(=O)OCC(CCCCCC)CCCCCCCC)CCN(CCN(C)C)C1CCC1` (stereo not shown) [Lipid 2, 2-hexyldecyl 6-[(2-{cyclobutyl[2-(dimethylamino)ethyl]amino}ethyl)({6-[(2-hexyldecyl)oxy]-6-oxohexyl})amino]hexanoate], in the assay with human Jurkat T cells [2], the “cellular uptake efficiency, result in words” value is “outperformed the controls”. In the assay on human Jurkat T cells [1], the transfection efficiency amounted to 92% and the “transfection efficiency, result in words” value is “outperformed the controls”.
Consider `CCCCCCCCC(CCCCCC)COC(=O)CCCCCN(CCCCCC(=O)OCC(CCCCCC)CCCCCCCC)CCN(CCCN(C)C)C1CCC1` (stereo not shown) [Lipid 3, 2-hexyldecyl 6-[(2-{cyclobutyl[3-(dimethylamino)propyl]amino}ethyl)({6-[(2-hexyldecyl)oxy]-6-oxohexyl})amino]hexanoate], for which, in the assay on human Jurkat T cells [2], the “cellular uptake efficiency, result in words” value was “outperformed the controls”. Besides, in the assay on human Jurkat T cells [1], the transfection efficiency turned out to be 78% and the “transfection efficiency, result in words” value was “outperformed the controls”.
